Experimental data as given in PubChem BioAssay AID1919005 (Molecular Pharmacology Branch, DTP, NCI, 2023).

Test system: 855422-203-R-J1-PDC complex spheroid growth
Assay: Anticancer human tumor 855422-203-R-J1-PDC patient-derived bladder carcinoma cell line growth inhibition [AhR]
Settings: for IC50: curve of first compound; for viability, T/C: stronger effect = lower value
Text: Multicellular complex tumor spheroid response to aryl hydrocarbon receptor antagonists in combination with a variety of drugs and investigational agents in selected tumor cell lines
The current study was undertaken to assess response to aryl hydrocarbon receptor antagonists in combination with standard-of-care drugs and investigational agents in solid tumor complex spheroid models. Complex spheroids include a stromal component modeled by human endothelial cells (HUVEC) and fibroblasts modeled by human mesenchymal stem cells (MSCs). The concentration ranges selected for each drug and investigational agent were based upon clinically achievable concentrations if the clinical Cmax of the agent was known.
Compounds. The drugs and investigational agents: BAY 2416964 (NSC825713), GNF351 (NSC835774), CH-223191 (NSC835775), CPI-455 (NSC825282), aza-TdCyd (NSC777586), decitabine (NSC127716), belinostat (NSC758774), entinostat (NSC756642), pevonedistat (NSC761192), tazemetostat (NSC777109), talazoparib (NSC765396), olaparib (NSC753686), selinexor (NSC780203), nedisertib (M3814, NSC802822), bortezomib (NSC756655), venetoclax (NSC766270), doxorubicin (NSC123127), elimusertib (BAY189344, NSC800525), ceralasertib (AZD6738, NSC777638), TAK-243 (NSC785004), alisertib (NSC759677), etoposide (NSC141540), topotecan (NSC609699), eribulin (NSC707389), gemcitabine (NSC613327), carboplatin (NSC241240), cisplatin (NSC119875), and SN-38 (NSC673596) were obtained from the National Cancer Institute (NCI) Developmental Therapeutics Program Chemical Repository (32). The FDA-approved anticancer drug set is available from the Developmental Therapeutics Program at https://dtp.cancer.gov/organization/dscb/obtaining/available plates.htm. […] The stock solutions were prepared in dimethyl sulfoxide (DMSO, Sigma-Aldrich, St. Louis, MO, cat. D2650), except for the platinum compounds which were prepared in saline (Quality Biological, Gaithersburg, MD, cat. 114-055-101), at 800-fold the tested concentration and stored at -70 degrees C prior to their use. All drugs and investigational agents were tested over a range starting from a high concentration at or near the clinical Cmax and decreasing in half-log increments. If the clinical Cmax for an agent had not been determined, the highest concentration tested was 10 microM (Table 1).
Cell Culture. All cells were maintained in an incubator at 37 degrees C and 5% CO2 with 95% humidity. The PDC lines were cultured according to standard operating procedures established by the NCI PDMR (https://pdmr.cancer.gov). Briefly, all PDCs were thawed and cultured in Matrigel-coated flasks prepared with a working solution of 1X Ham's F-12 nutrient mix, without supplementation (Invitrogen, Waltham, MA, cat. 11765054), 100 U/mL penicillin-streptomycin (Invitrogen, cat. 15140122), and 2.5% Matrigel (Corning Inc., Corning, NY, cat. 354248) for the first three passages. All PDCs were cultured in complete DMEM/F-12 media containing advanced DMEM/F-12 (Invitrogen, cat. 12634028), 4.9% defined fetal bovine serum, heat inactivated (HyClone Laboratories Inc., Logan, UT, cat. SH30070.03HI), 389 ng/mL hydrocortisone (Sigma-Aldrich, cat. H4001), 9.7 ng/mL human EGF recombinant protein (Invitrogen, cat. PHG0313), 23.4 microg/mL adenine (Sigma-Aldrich, cat. A2786), 97.3 U/mL penicillin-streptomycin (Invitrogen, cat. 15140122), 1.9 mM L-glutamine (Invitrogen, cat. 25030081), and 9.7 microM Y-27632 dihydrochloride (Tocris Bioscience, Bristol, United Kingdom, cat. 1254). The PDCs were cultured in complete DMEM/F12 media without 10 microM Y-27632 dihydrochloride for at least two passages prior to the screen. The established cell lines NCI-H1341 and […] were cultured in DMEM/F-12, HEPES (Invitrogen, cat. 11330032), 5% defined fetal bovine serum (HyClone Laboratories Inc., cat. SH30070.03), ITS premix universal culture supplement [insulin (5 microg/mL), transferrin (5 microg/mL), and selenious acid (5 ng/mL)] […]

[1] = second compound 0.1 µM, first compound 0.0316 µM
[2] = second compound 0.1 µM, first compound 0.1 µM
[3] = second compound 0.1 µM, first compound 0.316 µM
[4] = second compound 0.1 µM, first compound 1 µM
[5] = second compound 0.1 µM, first compound 3.16 µM
[6] = second compound 0.1 µM, first compound 10 µM
[7] = second compound 0.316 µM, first compound 0.0316 µM
[8] = second compound 0.316 µM, first compound 0.1 µM
[9] = second compound 0.316 µM, first compound 0.316 µM
[10] = second compound 0.316 µM, first compound 1 µM
[11] = second compound 0.316 µM, first compound 3.16 µM
[12] = second compound 0.316 µM, first compound 10 µM
[13] = second compound 1 µM, first compound 0.0316 µM
[14] = second compound 1 µM, first compound 0.1 µM
[15] = second compound 1 µM, first compound 0.316 µM
[16] = second compound 1 µM, first compound 1 µM
[17] = second compound 1 µM, first compound 3.16 µM
[18] = second compound 1 µM, first compound 10 µM
[19] = second compound 3.16 µM, first compound 0.0316 µM
[20] = second compound 3.16 µM, first compound 0.1 µM
[21] = second compound 3.16 µM, first compound 0.316 µM
[22] = second compound 3.16 µM, first compound 1 µM
[23] = second compound 3.16 µM, first compound 3.16 µM
[24] = second compound 3.16 µM, first compound 10 µM
[25] = second compound 10 µM, first compound 0.0316 µM
[26] = second compound 10 µM, first compound 0.1 µM
[27] = second compound 10 µM, first compound 0.316 µM
[28] = second compound 10 µM, first compound 1 µM
[29] = second compound 10 µM, first compound 3.16 µM
[30] = second compound 10 µM, first compound 10 µM
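Also: spheroids exposed to agents for seven days before readout.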
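For viability, T/C in this document: percent of DMSO vehicle control luminescence viability.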

| Structure (SMILES) | IC50 (second compound 0.1 µM) [µM] | IC50 (second compound 0.316 µM) [µM] | IC50 (second compound 1 µM) [µM] | IC50 (second compound 3.16 µM) [µM] | IC50 (second compound 10 µM) [µM] | viability, T/C [1] [%] | viability, T/C [2] [%] | viability, T/C [3] [%] | viability, T/C [4] [%] | viability, T/C [5] [%] | viability, T/C [6] [%] | viability, T/C [7] [%] | viability, T/C [8] [%] | viability, T/C [9] [%] | viability, T/C [10] [%] | viability, T/C [11] [%] | viability, T/C [12] [%] | viability, T/C [13] [%] | viability, T/C [14] [%] | viability, T/C [15] [%] | also measured |
| --- | --- | --- | --- | --- | --- | --- | --- | --- | --- | --- | --- | --- | --- | --- | --- | --- | --- | --- | --- | --- | --- |
| COc1ccc([C@@H](O)c2cc(-c3ncnc4cc(N5CCOCC5)ccc34)c(F)cc2Cl)nn1 + Cc1ccccc1N=Nc1ccc(NC(=O)c2ccnn2C)c(C)c1 | > 10 | > 10 | > 10 | > 10 | 6.18 | 99.2 | 108 | 98.3 | 96.5 | 87.3 | 71.3 | 107 | 111 | 99.8 | 102 | 90.1 | 70.3 | 107 | 102 | 106 | viability, T/C [16]: 96.9%; viability, T/C [17]: 87.8%; viability, T/C [18]: 63.1%; viability, T/C [19]: 95.9%; viability, T/C [20]: 100%; viability, T/C [21]: 95.7%; viability, T/C [22]: 98.6%; viability, T/C [23]: 77.1%; viability, T/C [24]: 54.8%; viability, T/C [25]: 87.8%; viability, T/C [26]: 91.6%; viability, T/C [27]: 86.1%; viability, T/C [28]: 86%; viability, T/C [29]: 62%; viability, T/C [30]: 41.4% |
| COc1cccc2c1C(=O)c1c(O)c3c(c(O)c1C2=O)CC(O)(C(=O)CO)CC3OC1CC(N)C(O)C(C)O1 (stereo not given) + Cc1cncc(-c2nc(NCCc3c[nH]c4ccccc34)c3ncn(C(C)C)c3n2)c1 | < 0.0316 | < 0.0316 | < 0.0316 | < 0.0316 | < 0.0316 | 19.5 | 15.4 | 2.05 | 0.85 | 1.02 | 1.75 | 22.4 | 13.7 | 1.65 | 0.73 | 0.93 | 1.37 | 17.8 | 10.3 | 4.93 | viability, T/C [16]: 4.6%; viability, T/C [17]: 0.74%; viability, T/C [18]: 1.14%; viability, T/C [19]: 17.9%; viability, T/C [20]: 7.51%; viability, T/C [21]: 2.13%; viability, T/C [22]: 1.95%; viability, T/C [23]: 1.19%; viability, T/C [24]: 0.94%; viability, T/C [25]: 4.02%; viability, T/C [26]: 1.33%; viability, T/C [27]: 0.55%; viability, T/C [28]: 0.22%; viability, T/C [29]: 0.28%; viability, T/C [30]: 0.3% |
| CC1COCCN1c1cc(C2(S(C)(=N)=O)CC2)nc(-c2ccnc3[nH]ccc23)n1 (stereo not given) + Cc1ccccc1N=Nc1ccc(NC(=O)c2ccnn2C)c(C)c1 | > 10 | > 10 | > 10 | > 10 | 7.86 | 95.5 | 95.4 | 97.4 | 99.4 | 110 | 54.9 | 105 | 99.2 | 104 | 101 | 121 | 55.4 | 102 | 98.4 | 95 | viability, T/C [16]: 106%; viability, T/C [17]: 125%; viability, T/C [18]: 60%; viability, T/C [19]: 91%; viability, T/C [20]: 91.4%; viability, T/C [21]: 92.9%; viability, T/C [22]: 102%; viability, T/C [23]: 109%; viability, T/C [24]: 50.8%; viability, T/C [25]: 83.5%; viability, T/C [26]: 79%; viability, T/C [27]: 83.6%; viability, T/C [28]: 93.3%; viability, T/C [29]: 82%; viability, T/C [30]: 41.4% |
